Where a name gives a salt, the structure may show the parent alone.
Assays:
[1] = target: T1, 5-Lipoxygenase enzyme from RBL-1 cells (Rattus norvegicus, UniProt P12527); test: RBL-1 5-lipoxygenase screen (cell free); format: biochemical; details: read-out: percentage inhibition of 5-lipoxygenase
T1 construct: prepared as a 10,000 g supernatant from RBL-1 cells; endogenous in cells; host or cells: RBL-1 cells (10,000 g supernatant)
T1 sequence (P12527 1-673): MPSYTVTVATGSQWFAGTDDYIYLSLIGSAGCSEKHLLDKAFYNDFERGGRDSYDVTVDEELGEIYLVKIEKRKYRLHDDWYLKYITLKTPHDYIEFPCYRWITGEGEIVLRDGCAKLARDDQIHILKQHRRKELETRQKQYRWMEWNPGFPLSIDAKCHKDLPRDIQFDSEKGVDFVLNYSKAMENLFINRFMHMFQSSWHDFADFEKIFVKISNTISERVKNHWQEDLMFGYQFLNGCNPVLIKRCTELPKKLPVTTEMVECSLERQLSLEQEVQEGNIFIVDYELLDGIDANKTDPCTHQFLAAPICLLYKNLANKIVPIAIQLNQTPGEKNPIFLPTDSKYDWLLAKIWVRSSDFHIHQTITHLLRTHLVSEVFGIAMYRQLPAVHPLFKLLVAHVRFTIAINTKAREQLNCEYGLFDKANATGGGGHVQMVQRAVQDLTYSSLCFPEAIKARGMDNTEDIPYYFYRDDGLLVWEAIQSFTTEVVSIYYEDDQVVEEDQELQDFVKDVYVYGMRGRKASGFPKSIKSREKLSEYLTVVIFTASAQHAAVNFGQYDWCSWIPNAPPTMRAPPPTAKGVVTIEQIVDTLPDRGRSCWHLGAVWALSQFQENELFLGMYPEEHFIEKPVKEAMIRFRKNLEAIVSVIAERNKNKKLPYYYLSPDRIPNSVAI
Procedure: RBL-1 5-LIPOXYGENASE SCREEN
5-Lipoxygenase enzyme was prepared as a 10,000 g supernatant from RBL-1 cells by the method of Jakschik [Jakschik, B. A., F. F. Sun, L. M. Lee, and M. M. Steinhoff, 1980, Biochem. Biophys. Res. Comm. 95, 103]. The 10,000 g supernatant was diluted with homogenization buffer to the equivalent of 1.5-2.5×10^7 cells. ml^-1 and made 2 mM with respect to CaCl2. Aliquots of 0.5 ml were then dispensed into tubes, and incubated at 29° C. with 5 μl ethanol or compound in ethanol at the desired concentration for 2 min. Then […] arachidonic acid was added in buffer to give a final concentration of 6.3 μM and 0.2 μCi per incubation, and the reaction continued at 29° C. for 2 min. The reaction was terminated by adding 1 ml of acetone and cooling on ice, 0.5 ml of ice-cold saline and 10 μl of 2N formic acid were added, and the mixture was extracted with 2×2 ml of chloroform. The extract was stored under N2 at -20° C. until analysis by chromatography. Activity was measured as the percentage of total radioactivity found in 5-HETE and 5,12-diHETE, and inhibition calculated as the decrease in formation of the sum of these two species in compound-treated incubates relative to control incubates.
This test is used to show inhibition of the 5-lipoxygenase enzyme in a mammalian RBL-1 cell free 5-lipoxygenase assay.

[2] = system: carrageenin-induced pleurisy; test: Carrageenin-induced pleurisy in the rat; format: in vivo; details: dose of 25 mg/kg p.o., given 1 hour before and 24 and 48 hours after carrageenin
Procedure: CARRAGEENIN-INDUCED PLEURISY IN THE RAT
This model of monocyte accumulation is based on the method of R. Vinegar, J. F. Truax, J. L. Selph and F. A. Voelker [Federation Proceeding 41, 2588-2595, 1982].
0.2 ml of a 2.0% solution of λ-carrageenin (Viscarin 402) in saline was injected intrapleurally in anaesthetised rats (wt. approx. 175-200 g). Compounds were administered 1 hour before carrageenin and at 24 and 48 hours after carrageenin. 72 hours after carrageenin injection, 4.0 ml of EDTA solution (5 g EDTA in 100 ml of 0.9% saline and 325 mg phenol red added together with saline to 1 liter) was injected intrapleurally after killing the animals, and the exudate removed with a syringe through the diaphragm. Exudate volume was measured spectrophotometrically (560 nm) and cellular content estimated with a DNA assay [Karsten U. and Wollenberger A. Anal. Biochem. 77, 464-470, 1977].
This test is used to indicate anti-inflammatory activity against carrageenin-induced pleurisy in the rat. The compound of Example 1 was active at a dose of 25 mg/kg (p.o.).

SMILES	inhibition at 1 µM ([1]; 1 μM concentration) [%]	anti-inflammatory activity against carrageenin-induced pleurisy in the rat [2]	inhibition at 20 µM ([1]; 20 μM concentration) [%]
Cc1cc(C(C)(C)C)c(O)c2[nH]c(C(F)(F)F)nc12 [Example 1, 5-tert-Butyl-4-hydroxy-7-methyl-2-trifluoro-methylbenzimidazole]	93	active	
Cc1ccc(O)c2[nH]c(C(F)(F)F)nc12 [Example 2, 4-Hydroxy-7methyl-2-trifluoromethylbenzimidazole hydrochloride hydrate (4:4:1)]			68

Source: patent US4755525A, “2-(fluoroalkyl)-benzimidazoles as inhibitors of 5-lipoxygenase” (Beecham Group p.l.c., priority 1985, dated 1988)
